Results taken from patent US11292786B2, “Pyrimidine compounds and pharmaceutical compositions for preventing or treating cancers including the same” (HANMI PHARM. CO., LTD., priority 2018, dated 2022).

Tests used:
[1] = Microsomal stability, human liver microsomes; type: in vitro ADME; settings: residual amount % after 1 hour at 37° C., 5 μM, 1 mg/ml human liver microsomes, NADPH regenerating system
Experimental: To confirm the reactivity of the test substances with intra-hepatic CYP450 enzymes, 5 μM test substances and 1 mg/ml human liver microsomes were incubated for 1 hour at a temperature of 37° C. in the presence of an NADPH regenerating system. After 1 hour, acetonitrile was added to terminate the reaction, and the supernatant obtained by centrifugation was analyzed by HPLC. The remaining amount % was calculated using the following equation using the value of the reacted sample for 1 hour relative to the value of the 0-minute sample as the peak value obtained as an analysis result. (Peak value of the sample reacted for 1 hour/peak value of the sample at 0 minutes)×100=residual amount %.

[2] = Microsomal stability, mice microsomes; type: in vitro ADME; settings: residual amount % after 1 hour at 37° C., 5 μM, NADPH regenerating system

| Human microsomal stability (%) [1] | Mice microsomal stability (%) [2] | Structure (SMILES) |
| --- | --- | --- |
| 49% | 29% | CCN(CC)C1CCN(c2cc(Nc3ncc(Cl)c(-c4c[nH]c5cc(C)ccc45)n3)cc(C3CC3)c2)CC1 [Control Compound 6] |
| 72% | 69% | Cc1ccc2c(-c3nc(Nc4cc(CN5C[C@@H](C)NC6(CC6)C5)cc(C5CC5)c4)ncc3Cl)c[nH]c2c1 [Example 27, (R)-5-chloro-N-(3-cyclopropyl-5-((5-methyl-4,7-diazaspiro[2.5]octan-7-yl)methyl)phenyl)-4-(6-methyl-1H-indole-3-yl)pyrimidine-2-amine] |
